System: Human patients with a history of allergy
Assay: Allergen challenge of human patients after FK506 eye drops; ocular itching score
Assay type: in vivo
Description: Human patients with a history of allergy were divided into 5 groups and treated in one eye with eye drop (placebo, 0.01% FK506, 0.03% FK506, 0.06% FK506 or 0.1% FK506), and the other eye with placebo. Each eye drop was administered 4 times per day for seven days and 16 hours after the final instillation, patients were administered allergen-containing eye drops at a concentration predetermined to cause a reaction in the patient. The one hundred patients having a baseline itching score of at lease 3, on a scale of 0 to 4, with 4 being most severe, were evaluated.

Q: With `C=CC[C@@H]1/C=C(\C)C[C@H](C)C[C@H](OC)[C@H]2O[C@@](O)(C(=O)C(=O)N3CCCC[C@H]3C(=O)O[C@H](/C(C)=C/[C@@H]3CC[C@@H](O)[C@H](OC)C3)[C@H](C)[C@@H](O)CC1=O)[C@H](C)C[C@@H]2OC` [FK506, 17-allyl-1,14-dihydroxy-12-[2-(4-hydroxy-3-methoxycyclohexyl)-1-methylvinyl]-23,25-dimethoxy-13,19,21,27-tetramethyl-11,28-dioxa-4-azatricyclo[22.3.1.0^4,9]octacos-18-ene-2,3,10,16-tetraone] as the compound, how does the “decrease from baseline itching score versus placebo” value (3 minutes post challenge, all concentrations (0.01%, 0.03%, 0.06%, 0.1% eye drops), 4 times per day for seven days, challenge 16 hours after final instillation) read?
A: Its value is “statistically significant versus placebo”.

Q: What about the “decrease from baseline itching score: dose response” value (eye drops 0.01%, 0.03%, 0.06% or 0.1% FK506, 4 times per day for seven days, allergen challenge 16 hours after final instillation, itching scale 0 to 4, FIG. 1) of the same compound?
A: Its value is “pronounced dose response”.

Source: patent publication US20050239813A1, “Pharmaceutical compositions comprising fk506 derivatives and their use for the treatment of allergic diseases” (Sucampo Pharmaceuticals Inc., priority 2002, published 2005)
